Test results published in patent US8921364B2, “Modulators of calcium release-activated calcium channel” (Rhizen Pharmaceuticals SA, priority 2009, dated 2014).
Where a name gives a salt, the structure may show the parent alone.

Assays:
[1] = biological target: CRAC channels (Homo sapiens (Human), UniProt Q96D31); test: In-vitro CRAC channel inhibition assay in Jurkat cells (thapsigargin-induced calcium influx); assay type: cell-based; conditions: Jurkat cells, thapsigargin-induced calcium influx
Experimental: Inhibition of CRAC channels was determined following thapsigargin (Sigma, Cat # T9033) induced endoplasmic calcium release in Jurkat cells. […] Cells were centrifuged and re-suspended in equal volumes ° f Ca^2+ and Mg^2+ free Hanks buffer and Fluo-8 NW dye (ABD Bioquest, Inc., Sunnyvale, Calif.) loading solution at 2×10^5 cells/100 μl/well in 96-well black plate. Plate is incubated at 37° C., 5% CO2 for 30 min followed by further 15 min incubation at room temperature. Test compounds (DMSO stocks diluted in Ca^2+ and Mg^2+ free Hanks buffer) at desired concentrations were added to the wells and incubated for […] Thapsigargin (1 μM final concentration) was added to the wells and incubated for 15 min to inhibit the Sarco-endoplasmic reticulum Ca^2+ ATPase pump thereby depleting endoplasmic calcium and raising cytosolic calcium concentrations. Store-operated calcium entry was initiated by adding extracellular Ca^2+ to a final concentration of 1.8 mM. Fluorescence was monitored over […] on a plate reader (BMG Labtech., Germany) with excitation at 485 nm and an emission wavelength at 520 nm. Data were analyzed using GraphPad Prism. IC50 for each compound was determined based on the percent inhibition of thapsigargin-induced calcium influx into cells.

[2] = biological target: CRAC channels over the voltage operated channels (VOC) (Homo sapiens (Human), UniProt Q96D31); conditions: Yonetoky et al.; cited from earlier work
Sequence of CRAC channels over the voltage operated channels (VOC) (Q96D31 whole entry): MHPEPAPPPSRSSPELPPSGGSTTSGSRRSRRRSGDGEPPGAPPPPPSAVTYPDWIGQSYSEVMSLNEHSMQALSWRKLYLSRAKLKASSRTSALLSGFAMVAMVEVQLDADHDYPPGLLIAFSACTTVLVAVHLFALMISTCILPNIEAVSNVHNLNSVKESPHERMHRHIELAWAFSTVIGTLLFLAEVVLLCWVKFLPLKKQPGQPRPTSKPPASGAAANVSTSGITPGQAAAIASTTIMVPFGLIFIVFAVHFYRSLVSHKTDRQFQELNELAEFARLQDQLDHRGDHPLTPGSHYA

Sequence of CRAC channels (Q96D31 whole entry): as above

Compound	IC50 [1]	further results
Cc1ncsc1C(=O)Nc1ccc(-n2nc(C(F)(F)F)cc2C2CC2)cc1 [Example 53, N-{4-[5-cyclopropyl-3-(trifluoromethyl)-1H-pyrazol-1-yl]phenyl}-4-methylthiazole-5-carboxamide]	72 nM	–
Cc1oncc1C(=O)Nc1ccc(-n2nc(C(F)(F)F)cc2C2CC2)cc1 [Example 56, N-{4-[5-cyclopropyl-3-(trifluoromethyl)-1H-pyrazol-1-yl]phenyl}-5-methylisoxazole-4-carboxamide]	63.2 nM	–
Cc1noc(C)c1C(=O)Nc1ccc(-n2nc(C(F)(F)F)cc2C2CC2)cc1 [Example 57, N-{4-[5-cyclopropyl-3-(trifluoromethyl)-1H-pyrazol-1-yl]phenyl}-3,5-dimethylisoxazole-4-carboxamide]	124 nM	–
Cc1ccccc1C(=O)Nc1ccc(-n2nc(C(F)(F)F)cc2C2CC2)cc1 [Example 60, N-{4-[5-cyclopropyl-3-(trifluoromethyl)-1H-pyrazol-1-yl]phenyl}-2-methylbenzamide]	120 nM	–
O=C(Nc1ccc(-n2nc(C(F)(F)F)cc2C2CC2)cc1)c1ccncc1F [Example 67, N-{4-[5-cyclopropyl-3-(trifluoromethyl)-1H-pyrazol-1-yl]phenyl}-3-fluoroisonicotinamide]	20.4 nM	–
Cc1ncsc1CNc1ccc(-n2nc(C(F)(F)F)cc2C2CC2)cc1 [Example 74, 4-[5-cyclopropyl-3-(trifluoromethyl)-1H-pyrazol-1-yl]-N-[(4-methylthiazol-5-yl)methyl]aniline]	48 nM	–
Cc1ncsc1NC(=O)c1ccc(-n2nc(C(F)(F)F)cc2C2CC2)cc1 [Example 78, 4-[5-cyclopropyl-3-(trifluoromethyl)-1H-pyrazol-1-yl]-N-(4-methylthiazol-5-yl)benzamide]	34.1 nM	–
O=C(Nc1c(F)cccc1F)c1ccc(-n2nc(C(F)(F)F)cc2C2CC2)cc1 [Example 79, 4-[5-cyclopropyl-3-(trifluoromethyl)-1H-pyrazol-1-yl]-N-(2,6-difluorophenyl)benzamide]	124 nM	–
Cc1ncsc1C(=O)Nc1ccc(-n2nc(C(F)(F)F)c(Cl)c2C2CC2)cc1 [Example 80, N-{4-[4-chloro-5-cyclopropyl-3-(trifluoromethyl)-1H-pyrazol-1-yl]phenyl}-4-methylthiazole-5-carboxamide]	194 nM	–
Cc1nnsc1C(=O)Nc1ccc(-n2nc(C(F)(F)F)cc2C2CC2)c(F)c1 [Example 82, N-{4-[5-cyclopropyl-3-(trifluoromethyl)-1H-pyrazol-1-yl]-3-fluorophenyl}-4-methyl-1,2,3-thiadiazole-5-carboxamide]	35.7 nM	–
Cc1ncsc1C(=O)Nc1ccc(-n2nc(C(F)(F)F)cc2C2CC2)c(F)c1 [Example 83, N-{4-[5-cyclopropyl-3-(trifluoromethyl)-1H-pyrazol-1-yl]-3-fluorophenyl}-4-methylthiazole-5-carboxamide]	48.2 nM	–
Cc1oncc1C(=O)Nc1ccc(-n2nc(C(F)(F)F)cc2C2CC2)c(F)c1 [Example 84, N-{4-[5-cyclopropyl-3-(trifluoromethyl)-1H-pyrazol-1-yl]-3-fluorophenyl}-5-methylisoxazole-4-carboxamide]	20.8 nM	–
O=C(Nc1ccc(-n2nc(C(F)(F)F)cc2C2CC2)c(F)c1)c1cccc(F)c1F [Example 87, N-{4-[5-cyclopropyl-3-(trifluoromethyl)-1H-pyrazol-1-yl]-3-fluorophenyl}-2,3-difluorobenzamide]	32.6 nM	–
Cc1ncncc1C(=O)Nc1ccc(-n2nc(C(F)(F)F)cc2C2CC2)c(F)c1 [Example 93, N-{4-[5-cyclopropyl-3-(trifluoromethyl)-1H-pyrazol-1-yl]-3-fluorophenyl}-4-methylpyrimidine-5-carboxamide]	81.2 nM	–
Cc1ncncc1NC(=O)Nc1ccc(-n2nc(C(F)(F)F)cc2C2CC2)c(F)c1 [Example 97, 1-{4-[5-cyclopropyl-3-(trifluoromethyl)-1H-pyrazol-1-yl]-3-fluorophenyl}-3-(4-methylpyrimidin-5-yl)urea]	600 nM	–
O=C(Nc1c(F)cccc1F)c1ccc(-n2nc(C(F)(F)F)cc2C2CC2)c(F)c1 [Example 100, 4-[5-cyclopropyl-3-(trifluoromethyl)-1H-pyrazol-1-yl]-N-(2,6-difluorophenyl)-3-fluorobenzamide]	99.7 nM	–

Compound	IC50 [1]	further results
Cc1nnsc1C(=O)Nc1ccc(-n2nc(C(F)(F)F)cc2C2CC2)nc1 [Example 101, N-{6-[5-cyclopropyl-3-(trifluoromethyl)-1H-pyrazol-1-yl]pyridin-3-yl}-4-methyl-1,2,3-thiadiazole-5-carboxamide]	150 nM	–
Cc1ccccc1C(=O)Nc1ccc(-n2nc(C(F)(F)F)cc2C2CC2)nc1 [Example 104, N-{6-[5-cyclopropyl-3-(trifluoromethyl)-1H-pyrazol-1-yl]pyridin-3-yl}-2-methylbenzamide]	23 nM	–
O=C(Nc1ccc(-n2nc(C(F)(F)F)cc2C2CC2)nc1)c1ccccc1F [Example 106, N-(6-(5-cyclopropyl-3-(trifluoromethyl)-1H-pyrazol-1-yl)pyridin-3-yl)-2-fluorobenzamide]	60 nM	–
O=C(Nc1ccc(-n2nc(C(F)(F)F)cc2C2CC2)nc1)c1cccc(F)c1F [Example 107, N-{6-[5-cyclopropyl-3-(trifluoromethyl)-1H-pyrazol-1-yl]pyridin-3-yl}-2,3-difluorobenzamide]	70.3 nM	–
O=C(Nc1ccc(-n2nc(C(F)(F)F)cc2C2CC2)nc1)c1c(F)cccc1F [Example 108, N-{6-[5-cyclopropyl-3-(trifluoromethyl)-1H-pyrazol-1-yl]pyridin-3-yl}-2,6-difluorobenzamide]	50.6 nM	–
O=C(Nc1ccc(-n2nc(C(F)(F)F)cc2C2CC2)nc1)c1cccnc1 [Example 111, N-{6-[5-cyclopropyl-3-(trifluoromethyl)-1H-pyrazol-1-yl]pyridin-3-yl}nicotinamide hydrochloride]	47.2 nM	–
Cc1ncccc1C(=O)Nc1ccc(-n2nc(C(F)(F)F)cc2C2CC2)nc1.Cl [Example 112, N-{6-[5-cyclopropyl-3-(trifluoromethyl)-1H-pyrazol-1-yl]pyridin-3-yl}-2-methyl nicotinamide hydrochloride]	–	% inhibition (1 uM) [1]: 36.44%
O=C(Nc1ccc(-n2nc(C(F)(F)F)cc2C2CC2)nc1)c1ccncc1 [Example 113, N-{6-[5-cyclopropyl-3-(trifluoromethyl)-1H-pyrazol-1-yl]pyridin-3-yl}isonicotinamide hydrochloride]	62.6 nM	–
O=C(Nc1ccc(-n2nc(C(F)(F)F)cc2C2CC2)nc1)c1ccncc1F [Example 114, N-{6-[5-cyclopropyl-3-(trifluoromethyl)-1H-pyrazol-1-yl]pyridin-3-yl}-3-fluoroisonicotinamide]	37.6 nM	–
O=C(Nc1c(F)cccc1F)c1ccc(-n2nc(C(F)(F)F)cc2C2CC2)nc1 [Example 122, 6-[5-cyclopropyl-3-(trifluoromethyl)-1H-pyrazol-1-yl]-N-(2,6-difluorophenyl) nicotinamide]	72.1 nM	–
O=C(Nc1cnc(-n2nc(C(F)(F)F)cc2C2CC2)nc1)c1c(F)cccc1F [Example 124, N-{2-[5-cyclopropyl-3-(trifluoromethyl)-1H-pyrazol-1-yl]pyrimidin-5-yl}-2,6-difluorobenzamide]	295 nM	–
Cc1ncsc1C(=O)Nc1ccc(-n2nc(C(F)(F)F)cc2CF)cc1 [Example 125, N-{4-[5-(fluoromethyl)-3-(trifluoromethyl)-1H-pyrazol-1-yl]phenyl}-4-methylthiazole-5-carboxamide]	373 nM	–
Cc1ncsc1C(=O)Nc1ccc(-n2nc(C(F)(F)F)cc2C(F)F)cc1 [Example 126, N-{4-[5-(difluoromethyl)-3-(trifluoromethyl)-1H-pyrazol-1-yl]phenyl}-4-methyl thiazole-5-carboxamide]	52.6 nM	–
Cc1nnsc1C(=O)Nc1ccc(-n2nc(C(F)(F)F)cc2C(F)(F)F)cc1 [YM-58483]	–	selective index (CRAC channels over VOC) [2]: 31
N-{4-[3-cyclopropyl-5-(difluoromethyl)-1H-pyrazol-1-yl]-3-fluorophenyl}-2,6-difluorobenzamide and N-{4-[5-cyclopropyl-3-(difluoromethyl)-1H-pyrazol-1-yl]-3-fluorophenyl}-2,6-difluorobenzamide [Example 135]	–	% inhibition (1 uM) [1]: 100%
